Paper PMC7828231, “Delphinidin Increases the Sensitivity of Ovarian Cancer Cell Lines to 3-bromopyruvate” (International Journal of Molecular Sciences, 2021)

Assays:
Type in all cases: cell-based, human
PEO1 cells [1] = assay: Atto-488-phalloidin and Mitotracker labeling (confocal); settings: 24 h
Method: (§1) Cells were seeded on an 8-well chamber slide (Lab-Tek™ II Chamber Slide™ System cat. no. 154534, Thermo Scientific, Waltham, MA, USA) at a density of 2.5 × 10^4 cells/chamber and allowed to attach at 37 °C. Subsequently, PEO1 and SKOV3 cells were treated with 25-µM D, 20-µM or 40-µM 3-BP (depending on the cell line) or both substances together for 24 h. Following the treatment, the medium was removed and replaced with 200-nM solution of Mitotracker Deep Red FM (i) (cat. no. M22426, Thermo Scientific, Waltham, MA, USA) in PBS and incubated for 30 min; in a CO2 incubator, the cells were washed with PBS (300 μL/well) and fixed with 200-μL/well 3.7% formaldehyde for 10 min. Then, the cells were washed with PBS (200 μL/well), permeabilized with 0.1% Triton X-100 solution (200 μL/well) for 10 min and washed with PBS (700 μL/well).
(§2) Following the treatment, the medium was removed and replaced with 150 μL/well of phalloidin working solution (ii) (prepared according to the manufacturer’s protocols) and incubated for 60 min.
(§3) After staining i or ii, the fixed cells were washed again, 600-nM solution of DAPI in PBS was added (200 µL/well), the cells were incubated at room temperature for 60 minutes and their micrographs were taken using a Zeiss LSM 710 inverted confocal microscope (Oberkochen, Germany). The ratio of fluorescence intensity of the mitochondria and cytoskeleton (expressed as a mean gray value) was calculated using ImageJ software. The corrected total cell fluorescence (CTFT) per cell was calculated according to https://theolb.readthedocs.io/en/latest/imaging/measuring-cell-fluorescence-using-imagej.html.

SKOV3 cells [2] = assay: as above; settings: 25-µM D, 40-µM 3-BP, 24 h
Method: as §1, §2, §3

PEO1 cells [3] = assay: Mitochondrial mass (NAO); settings: 25-µM D, 20 µM 3-BP, 24 h
Method: (§4) Cells were seeded at the density of 2 × 10^5 cells/well onto a 24-well plate and cultured as stated before. Following 24-hour exposure to the studied compounds, the cells were trypsinized, counted and transferred to separate Eppendorf tubes, and then centrifuged for 6 minutes at 3000 rpm. Subsequently the supernatant was discharged and the cells were washed with 1 mL of PBS and centrifuged again. Afterwards, 1 mL of 10 μM NAO solution in PBS was added into the samples, and incubated for 10 min in a CO2 incubator at 37 °C. Next, the cells were centrifuged and the pellet was washed with PBS, and resuspended in 300 μL of PBS. Each sample was transferred into a 96-well black plate (100 μL/well; 3 repetitions). Fluorescence was measured at 435/535 nm. The results were determined in relation to the cell count.

SKOV3 cells [4] = assay: Mitochondrial mass (NAO); settings: 25-µM D, 40 µM 3-BP, 24 h
Method: as §4

PEO1 cells [5] = assay: GSH content (OPA); settings: 25-µM D, 20 µM 3-BP, 24 h
Method: (§5) The content of reduced glutathione was assayed with OPA [63]. Briefly, the cells were seeded in wells of a transparent 96-well plate at a density of 7.5 × 10^3/well (MRC-5) or 1 × 10^4/well (cancer cells) and allowed to attach at 37 °C for 24 h. After 24-h treatment with the tested compounds, the medium was removed, the cells were washed with PBS (150 µL per well) and then added with 60 µL/well of cold redox quenching buffer (RQB) containing 20-mM HCl, 5% TCA, 5-mM DTPA and 10-mM L-ascorbic acid. The plate was shaken for 5 minutes and centrifuged for 5 minutes at 4000 rpm. Next, the supernatant was transferred into two 96-well black plates (“+NEM” and “–NEM”; 25 µL/well). Within the “+NEM” plate, 4 µL/well of freshly prepared 7.5-mM NEM in cold RQB buffer was added. Then, 1-M phosphate buffer (pH 7.0) was added into both plates (40 µL/well), and the plates were shaken for 5 min at 700 rpm. Finally, 160 µL/well of cold 0.1-M phosphate buffer (pH 6.8) and 25 µL/well of freshly prepared 0.5% OPA in methanol were added into both plates. Both plates were incubated for 30 minutes at room temperature with constant shaking. Fluorescence was then measured at 355/430 nm. The protein contents in the cell lysates were determined according to Lowry et al.. The concentration of reduced glutathione was determined by subtracting […] and calculated with respect to the protein content.

MRC-5 fibroblasts = assay: GSH content (OPA); settings: 25-µM D, 40 µM 3-BP, 24 h
Method: as §5

SKOV3 cells [6] = assay: GSH content (OPA); settings: 25-µM D, 40 µM 3-BP, 24 h
Method: as §5

PEO1 cells [7] = assay: Mitochondrial membrane potential (JC-1); settings: 25-µM D, 20 µM 3-BP, 24 h
Method: (§6) Changes of mitochondrial membrane potential was evaluated using 5,5′,6,6′-tetrachloro-1,1′,3,3′-tetraethyl-imidacarbocyanine iodide, 5,5′,6,6′-tetrachloro-1,1′,3,3′-tetraethylbenzimidazolocarbocyanine iodide (JC-1) with a Mitochondrial Membrane Potential Assay Kit.
(§7) The cells were seeded into black plates and treated as mentioned before. After 24h incubation with the studied compounds, the medium was discharged and replaced with 100x diluted JC-1 reagent in complete culture medium and incubated for 30 min in a CO2 incubator. Next, the plate was centrifuged at 4000 rpm for 5 min and afterwards the reagent was aspirated, and cells were washed with 150 μL/well Cell-Based Assay Buffer and centrifuged once more. After removing the supernatant, 100 μL/well of the new buffer was added. Fluorescence was measured at 540/570 nm (red fluorescence) and 485/535 nm (green fluorescence). The results were presented as a ratio of green to red fluorescence intensity ratio.

SKOV3 cells [8] = assay: Mitochondrial membrane potential (JC-1); settings: 25-µM D, 40 µM 3-BP, 24 h
Method: as §6, §7

PEO1 cells [9] = assay: Apoptosis and necrosis assay (RealTime-Glo Annexin V); settings: after 24 h
Method: The levels of apoptosis and necrosis were assayed using the RealTime-Glo™ Annexin V Apoptosis and Necrosis Assay. Cells were seeded into a white 96-well plate with optical bottom, cultured and treated adequately, as stated above. After 24 h, 100 μL of the freshly prepared reagent was added to each well according to the manufacturer’s protocols. The fluorescence and luminescence were measured according to the protocols.

Structure (SMILES)	increase in the intensity of staining with Atto-488-phalloidin with respect to the control (PEO1 cells [1]; 20-µM 3-BP) [%]	decrease in the intensity of staining with Mitotracker Red with respect to the control (PEO1 cells [1]; 25-µM D, 20-µM 3-BP)	decrease in the intensity of staining with Atto-488-phalloidin with respect to the control (SKOV3 cells [2])	decrease in the intensity of staining with Mitotracker Red with respect to the control (SKOV3 cells [2])	mitochondrial mass (PEO1 cells [3])	mitochondrial mass (SKOV3 cells [4])	GSH level (PEO1 cells [5])	GSH level (MRC-5 fibroblasts)	GSH level (SKOV3 cells [6])	mitochondrial potential (JC-1 fluorescence ratio) (PEO1 cells [7])	mitochondrial potential (JC-1 fluorescence ratio) (SKOV3 cells [8])	induction of necrosis (PEO1 cells [9])	decrease in the intensity of staining with Atto-488-phalloidin with respect to the control (PEO1 cells [1]; 25-µM D, 20-µM 3-BP) [%]	increase in the intensity of staining with Mitotracker Red with respect to the control (PEO1 cells [1]; 25-µM D)
O=C(O)C(=O)CBr [3-BP, 3-bromopyruvic acid]	~51	about 7%	about 33%	about 39%	increased	increased	decreased	neither 3-BP or D alone modified	increased	decreased	increased	considerable induction of necrosis		
Oc1cc(O)c2cc(O)c(-c3cc(O)c(O)c(O)c3)[o+]c2c1 [Delphinidin chloride, 3,3′,4′,5,5′,7-hexahydroxyflavylium]			~67%	~94%	increased	decreased	did not affect	neither 3-BP or D alone modified	without effect	decreased	increased	considerable induction of necrosis	~17	about 7%
